# From patent US20080004276A1, “Method for treating non-hodgkin's lymphoma” (priority 2006, published 2008)
# pIC50: −log10 of the molar value.
# Tested on: Her2
# Experiment: IC50 range for inhibition of Her2 degradation (Table 8)
# Assay type: cell-based
# Conditions: Homo sapiens
# Method: Human high-Her2 breast carcinoma BT474 (HTB-20), SK-BR-3 (HTB-30) and MCF-7 breast carcinoma (HTB-22) from American Type Culture Collection, VA, USA were grown in Dulbecco's modified Eagle's medium with 4 mM L-glutamine and antibiotics (100 IU/ml penicillin and 100 ug/ml streptomycine; GibcoBRL). To obtain exponential cell growth, cells were trypsinized, counted and seeded at a cell density of 0.5×10^6 cells/ml regularly, every 3 days. All experiments were performed on day 1 after cell passage. […]
# After treatment with a compound of the invention, cells were washed twice with 1×PBS/1% FBS, and then stained with anti-Her2-FITC (#340553, BD) for 30 min at 4° C. Cells were then washed three times in FACS buffer before the fixation in 0.5 ml 1% paraformadehydrede. Data was acquired on a FACSCalibur system. Isotype-matched controls were used to establish the non-specific staining of samples and to set the fluorescent markers. A total 10,000 events were recorded from each sample. Data were analysed by using CellQuest software (BD Biosciences).
row,SMILES,pIC50
1,CCOc1ccc2c(-n3c(S)nnc3-c3ccc(O)cc3O)cccc2c1 [Compound 6],5.00 to 5.52
2,CCCOc1ccc2c(-n3c(S)nnc3-c3ccc(O)cc3O)cccc2c1 [Compound 7],5.00 to 5.52
3,CC(C)Oc1ccc2c(-n3c(S)nnc3-c3ccc(O)cc3O)cccc2c1 [Compound 9],5.00 to 5.52
4,"CCn1ccc2c(-n3c(S)nnc3-c3ccc(O)cc3O)cccc21 [Compound 13, 3-(2,4-Dihydroxyphenyl)-4-(1-ethyl-indol-4-yl)-5-mercapto-triazole]",> 5.52
5,"Oc1ccc(-c2nnc(S)n2-c2cccc3c2OCCO3)c(O)c1 [Compound 14, 3-(2,4-Dihydroxyphenyl)-4-(2,3-dihydro-benzo[1,4]dioxin-5-yl)-5-mercapto-triazole]",5.00 to 5.52
6,"COc1cccc(-n2c(S)nnc2-c2ccc(O)cc2O)c1 [Compound 21, 3-(2,4-Dihydroxyphenyl)-4-(3-methoxyphenyl)-5-mercapto-triazole]",4.00 to 5.00
7,"COc1ccc(-n2c(S)nnc2-c2ccc(O)cc2O)cc1 [Compound 22, 3-(2,4-Dihydroxyphenyl)-4-(4-methoxyphenyl)-5-mercapto-triazole]",4.00 to 5.00
8,"Cc1cccc(-n2c(S)nnc2-c2ccc(O)cc2O)c1C [Compound 34, 3-(2,4-Dihydroxyphenyl)-4-(2,3-dimethylphenyl)-5-mercapto-triazole]",5.00 to 5.52
9,"Oc1ccc(-c2nnc(S)n2-c2cccc(Cl)c2Cl)c(O)c1 [Compound 38, 3-(2,4-Dihydroxyphenyl)-4-(2,3-dichlorophenyl)-5-mercapto-triazole]",5.00 to 5.52
10,"COc1cccc2c(-n3c(S)nnc3-c3ccc(O)cc3O)cccc12 [Compound 39, 3-(2,4-Dihydroxyphenyl)-4-(5-methoxynaphthalen-1-yl)-5-mercapto-triazole]",> 5.52
11,"Oc1ccc(-c2nnc(S)n2-c2cccc3c2CCCC3)c(O)c1 [Compound 42, 3-(2,4-Dihydroxyphenyl)-4-(1,2,3,4-tetrahydronaphthalen-5-yl)-5-mercapto-triazole]",5.00 to 5.52
12,"Oc1ccc(-c2nnc(S)n2-c2ccc(Cl)c3ccccc23)c(O)c1 [Compound 48, 3-(2,4-Dihydroxyphenyl)-4-(4-chloronaphthalen-1-yl)-5-mercapto-triazole]",5.00 to 5.52
13,"Cc1cc(-n2c(S)nnc2-c2ccc(O)cc2O)c2ccccc2n1 [Compound 51, 3-(2,4-Dihydroxyphenyl)-4-(2-methyl-quinolin-4-yl)-5-mercapto-triazole]",4.00 to 5.00
14,"CCn1cc(-c2nnc(S)n2-c2cccc3ccccc23)c(O)cc1=O [Compound 59, 3-(1-ethyl-4-hydroxy-6-oxo-1,6-dihydro-pyridin-3-yl)-4-(naphthalen-1-yl)-5-mercapto-triazole]",4.00 to 5.00
15,"CC(C)(C)c1cc(-n2c(S)nnc2-c2ccc(O)cc2O)cc(C(C)(C)C)c1 [Compound 61, 3-(2,4-Dihydroxy-phenyl)-4-(3,5-di-tert-butylphenyl)-5-mercapto-triazole]",4.00 to 5.00
16,"Cc1cc(-c2nnc(S)n2-c2cccc3ccccc23)c(O)cc1O [Compound 63, 3-(2,4-Dihydroxy-5-methyl-phenyl)-4-(naphthalene-1-yl)-5-mercapto-triazole]",> 5.52
17,"Oc1ccc(-c2nnc(S)n2-c2cccc3cnccc23)c(O)c1 [Compound 70, 3-(2,4-Dihydroxy-phenyl)-4-(isoquinolin-5-yl)-5-mercapto-triazole]",5.00 to 5.52
18,"CCc1cc(-c2nnc(S)n2-c2cccc3cc(OC)ccc23)c(O)cc1O [Compound 77, 3-(2,4-Dihydroxy-5-ethyl-phenyl)-4-(6-methoxy-naphthalin-1-yl)-5-mercapto-triazole]",> 5.52
19,"CCc1cc(-c2nnc(S)n2-c2ccc(OC)c(C)c2C)c(O)cc1O [Compound 79, 3-(2,4-Dihydroxy-5-ethyl-phenyl)-4-(2,3-dimethy-4-methoxy-phenyl)-5-mercapto-triazole]",> 5.52
20,"COc1cccc(-n2c(S)nnc2-c2ccc(O)cc2O)c1OC [Compound 93, 3-(2,4-Dihydroxy-phenyl)-4-(2,3-dimethoxy-phenyl)-5-mercapto-triazole]",5.00 to 5.52
21,"Oc1ccc(-c2nnc(S)n2-c2cccc3[nH]ccc23)c(O)c1 [Compound 95, 3-(2,4-Dihydroxy-phenyl)-4-(indol-4-yl)-5-mercapto-triazole]",> 5.52
22,COCCn1ccc2c(-n3c(S)nnc3-c3ccc(O)cc3O)cccc21 [Compound 96],> 5.52
23,"CCc1cc(-c2nnc(S)n2-c2cccc3c2ccn3C(C)C)c(O)cc1O [Compound 100, 3-(2,4-Dihydroxy-5-ethyl-phenyl)-4-(1-isopropyl-indol-4-yl)-5-mercapto-triazole]",> 5.52
24,"CC(=O)Oc1ccc(-c2nnc(SC(C)=O)n2-c2cccc3ccccc23)c(OC(C)=O)c1 [Compound 122, 3-(2,4-Diacetoxy-phenyl)-4-(naphthalen-1-yl)-5-(acetylsulfanyl)-triazole]",5.00 to 5.52
25,"CC(=O)Oc1ccc(-c2nnc(S)n2-c2cccc3ccccc23)c(OC(C)=O)c1 [Compound 123, 3-(2,4-Diacetoxy-phenyl)-4-(naphthalen-1-yl)-5-mercapto-triazole]",4.00 to 5.00
26,"Oc1ccc(-c2nnc(S)n2-c2cccc(-c3ccccc3)c2)c(O)c1 [Compound 181, 3-(2,4-Dihydroxy-phenyl)-4-(biphenyl-3-yl)-5-mercapto-triazole]",4.00 to 5.00
27,"Cc1ccc(CO)cc1-n1c(S)nnc1-c1ccc(O)cc1O [Compound 182, 3-(2,4-Dihydroxy-phenyl)-4-(2-methyl-5-hydroxymethyl-phenyl)-5-mercapto-triazole]",4.00 to 5.00

# Further lines, results first:
row,pIC50,SMILES
1,5.00 to 5.52,"COCCOc1ccc(-n2c(S)nnc2-c2ccc(O)cc2O)c2ccccc12 [Compound 2, 3-(2,4-Dihydroxyphenyl)-4-[4-(2-methoxyethoxy)-naphthalen-1-yl]-5-mercapto-triazole]"
2,> 5.52,"CCc1cc(-c2nnc(S)n2-c2cccc3c(OC)cccc23)c(O)cc1O [Compound 8, 3-(2,4-Dihydroxy-5-ethyl-phenyl)-4-(5-methoxy-naphthalen-1-yl)-5-mercapto-triazole]"
3,5.00 to 5.52,"Cc1ccc(-n2c(S)nnc2-c2ccc(O)cc2O)c(C)c1 [Compound 28, 3-(2,4-Dihydroxyphenyl)-4-(2,4-dimethyl-phenyl)-5-mercapto-triazole]"
4,4.00 to 5.00,Cc1cc(C)cc(-n2c(S)nnc2-c2ccc(O)cc2O)c1 [Compound 30]
5,5.00 to 5.52,"Oc1ccc(-c2nnc(S)n2-c2ccc3c4c(cccc24)CC3)c(O)c1 [Compound 36, 3-(2,4-Dihydroxyphenyl)-4-(acenaphthalen-5-yl)-5-mercapto-triazole]"
6,4.00 to 5.00,Cn1cc(-c2nnc(S)n2-c2cccc3ccccc23)c(O)cc1=O [Compound 60]
7,4.00 to 5.00,"Oc1nc(O)c(-c2nnc(S)n2-c2cccc3ccccc23)cc1F [Compound 62, 3-(2,6-Dihydroxy5-fluoro-pyridin-3-yl) 4-(naphthalen-1-yl)-5-mercapto-triazole]"
8,5.00 to 5.52,"O=C(c1ccccc1)c1cccc(-n2c(S)nnc2-c2ccc(O)cc2O)c1 [Compound 64, 3-[2,4-Dihydroxy-phenyl]-4-(3-benzoylphenyl)-5-mercapto-triazole]"
9,> 5.52,"CCc1cc(-c2nnc(S)n2-c2ccc(OC)c3ccccc23)c(O)cc1O [Compound 76, 3-(2,4-Dihydroxy-5-ethyl-phenyl)-4-(4-methoxy-naphthalen-1-yl)-5-mercapto-triazole]"
10,> 5.52,"Oc1ccc(-c2nnc(S)n2-c2ccc(O)c3ccccc23)c(O)c1 [Compound 87, 3-(2,4-Dihydroxyphenyl)-4-(4-hydroxy-naphthalen-1-yl)-5-mercapto-triazole]"
11,> 5.52,"CC(C)n1ccc2c(-n3c(S)nnc3-c3ccc(O)cc3O)cccc21 [Compound 88, 3-(2,4-Dihydroxyphenyl)-4-(1-isopropyl-indol-4-yl)-5-mercapto-triazole]"
12,4.00 to 5.00,"[O-][n+]1ccc(-c2nnc(S)n2-c2cccc3ccccc23)c(O)c1 [Compound 98, 3-(1-Oxo-3-hydroxy-pyridin-4-yl)-4-(naphthalen-1-yl)-5-mercapto-triazole]"
13,4.00 to 5.00,"O=C(O)c1cc(O)c(-c2nnc(S)n2-c2cccc3ccccc23)cc1O [Compound 99, 3-(2,5-Dihydroxy-4-carboxy)-4-(naphthalen-1-yl)-5-mercapto-triazole]"
14,4.00 to 5.00,"CCc1cc(-c2nnc(S)n2-c2cccc3c2ncn3CC)c(O)cc1O [Compound 102, 3-(2,4-Dihydroxy-5-ethyl-phenyl)-4-(1-ethyl-benzoimidazol-4-yl)-5-mercapto-triazole]"
15,> 5.52,"CCc1cc(-c2nnc(S)n2-c2ccc3c(c2)c(C)c(C)n3C)c(O)cc1O [Compound 103, 3-(2,4-Dihydroxy-5-ethyl-phenyl)-4-(1,2,3-trimethyl-indol-5-yl)-5-mercapto-triazole]"
16,4.00 to 5.00,"OCc1cc(O)c(-c2nnc(S)n2-c2cccc3ccccc23)cc1O [Compound 104, 3-(2,5-Dihydroxy-4-hydroxymethyl-phenyl)-4-(naphthalen-1-yl)-5-mercapto-triazole]"
17,> 5.52,"COc1cc(-c2nnc(S)n2-c2cccc3ccccc23)c(O)cc1O [Compound 177, 3-(2,4-Dihydroxy-5-methoxy-phenyl)-4-(naphthalen-1-yl)-5-mercapto-triazole]"
18,> 5.52,"CCc1cc(-c2nnc(S)n2-c2cccc3c(O)cccc23)c(O)cc1O [Compound 178, 3-(2,4-Dihydroxy-5-ethyl-phenyl)-4-(5-hydroxy-naphthalen-1-yl)-5-mercapto-triazole]"
19,5.00 to 5.52,"Oc1cc(O)c(-c2nnc(S)n2-c2cccc3ccccc23)cc1O [Compound 184, 3-(2,4,5-Trihydroxy-phenyl)-4-(naphthalene-1-yl)-5-mercapto-triazole]"
